Measurements taken from US6420605B1, “Benzamidoxim derivatives, intermediate products and methods for preparing and using them as fungicides” (BASF Aktiengesellschaft, priority 1997, dated 2002).

System: powdery mildew of wheat (Erysiphe graminis f.sp.tritici)
Experiment: Efficacy against powdery mildew of wheat (protective spray, greenhouse)
Assay type: in vivo
Conditions: wheat seedlings cv. Frühgold sprayed 24 hours before dusting with spores, after 7 days, untreated plants 80%
Description: Leaves of wheat seedlings cv. “Frühgold” grown in pots were sprayed to runoff point with aqueous preparation of active ingredient made with a stock solution composed of 10% active ingredient, 63% cyclohexanone and 27% emulsifier and, 24 hours after the spray coating had dried on, dusted with spores of powdery mildew of wheat (Erysiphe graminis f.sp.tritici). The test plants were subsequently placed in the greenhouse at from 20 to 22° C. and a relative atmospheric humidity of 75 to 80%. After 7 days, the extent of the mildew development was determined visually in % of the total leaf area.

[1] = Example 3, aqueous preparation comprising 63 ppm active ingredient

SMILES | extent of the mildew development determined visually in % of the total leaf area [1] | extent of the mildew development determined visually in % of the total leaf area (Example 4, concentration not given)
C=CCCON=C(NC(=O)Cc1ccccc1)c1c(F)cccc1OC(F)F [I.3, N-Phenylacetyl-2-difluoromethoxy-6-fluorobenzamide O-allylmethyl oxime] | free from disease | 
N#Cc1c(F)cccc1OC(F)F [II.1, 2-Difluoromethoxy-6-fluorobenzonitrile] |  | free from disease
O=C(Cc1ccccc1)NC(=NOCC1CC1)c1c(F)cccc1OC(F)F [I.6, N-Phenylacetyl-2-difluoromethoxy-6-fluorobenzamide O-cyclopropylmethyl oxime] | free from disease | 
